PMC11574021, “CEP192 localises mitotic Aurora-A activity by priming its interaction with TPX2” (The EMBO Journal, 2024)

How the values were obtained:
[1] = test system: Aurora-A-pT288 in U251 cells; assay: Immunofluorescence, Aurora-A-pT288 spindle pole signal intensity, U251; format: cell-based, Homo sapiens; conditions: U251, siRNA 48 h or Aurora-A inhibitor 30 min (250 nM)
Method: (§1) Drugs were resuspended in DMSO to the stock concentrations indicated in square brackets.
(§2) For immunofluorescence, 1 × 10^5 cells were seeded in six-well plates and simultaneously transfected with 60 pmol siRNA duplex and 3 µl transfection reagent diluted in 200 µl Opti-MEM serum-free medium. Growth medium was added to a final volume of 2 ml. For western blotting, 1 × 10^6 cells were seeded in 10 cm dishes and transfected with 300 pmol siRNA duplex and 15 µl transfection reagent diluted in 1000 µl Opti-MEM. Growth medium was added to a final volume of 10 ml. Cells were incubated with siRNA for 48 h prior to fixation or harvesting. As a negative control (siControl) Silencer select negative control No.1 siRNA was transfected as above. For TACC3 depletion, where two siRNA duplexes were used, 40 pmol of each was transfected per well.
For siRNA depletion, 1 × 10^5 cells were seeded in six-well plates and transfected as described above for 48 h prior to fixation. For all other experiments, 2.5 × 10^5 cells were seeded in six-well plates and grown for 24 h before fixation. […] Cells in Fig. EV4A were fixed using 4% (wt/v) paraformaldehyde (PFA) in PBS for 12 min, followed by 10 min quenching in 50 mM NH4Cl in PBS and 5 min of permeabilization with 0.2% (v/v) Triton X-100 in PBS, all at room temperature. For centriole staining in Fig. EV4E, cells were fixed in pre-chilled methanol for 10 min at −20 °C, incubated in PBS for 10 min and then 5 min in 0.5% Triton-X-100, 0.5% Tween, 0.05% SDS in PBS (v/v). […]
(§3) Here “area” refers to the area of DAPI-stained DNA, determined by thresholding (default mode) the region of interest. […] The diameter calculated, therefore, refers to that of a circle with equivalent area to the DAPI signal measured previously. The area of the nuclear DAPI signal (Appendix Fig. S6I) was determined by thresholding (as above). […] All fluorescence intensity and area measurements were obtained from maximum intensity z-projections. […]

Aurora-A in U251 cells = assay: Immunofluorescence, Aurora-A spindle pole signal intensity, U251; format: cell-based, Homo sapiens; conditions: U251, siRNA 48 h or Aurora-A inhibitor 30 min (250 nM)
Method: as §1, §2
For siRNA depletion, 1 × 10^5 cells were seeded in six-well plates and transfected as described above for 48 h prior to fixation. For all other experiments, 2.5 × 10^5 cells were seeded in six-well plates and grown for 24 h before fixation. […] Cells in Fig. EV4A were fixed using 4% (wt/v) paraformaldehyde (PFA) in PBS for 12 min, followed by 10 min quenching in 50 mM NH4Cl in PBS and 5 min of permeabilization with 0.2% (v/v) Triton X-100 in PBS, all at room temperature. For centriole staining in Fig. EV4E, cells were fixed in pre-chilled methanol for 10 min at −20 °C, incubated in PBS for 10 min and then 5 min in 0.5% Triton-X-100, 0.5% Tween, 0.05% SDS in PBS (v/v). To observe centromere and kinetochore staining in Fig. 7C and Appendix Fig. S8A, cells were fixed with PTEMF buffer (20 mM PIPES pH 6.8, 0.2% (v/v) Triton X-100, 10 mM EGTA, 1 mM MgCl2, 4% PFA (wt/v) in PBS) for 12 min at room temperature. For all other experiments, cells were fixed in pre-chilled methanol for 5 min at −20 °C. Following fixation, coverslips were blocked in 2% BSA (wt/v), 0.1% Tween (v/v) in PBS, this and all antibody incubation steps were carried out for 1 h at room temperature, unless otherwise stated. Primary and secondary antibody (Life technologies) dilutions were made in 0.1% Tween, PBS, with secondary staining being conducted in the dark. Coverslips were gently washed with three x 2 ml 0.2% Tween, PBS between antibody incubation steps. […]
as §3

Row | Compound | centrosomal/spindle pole Aurora-A-pT288 signal [1] | spindle (pole)-associated Aurora-A level (Aurora-A in U251 cells) | spindle (pole)-associated Aurora-A level (Aurora-A in U251 cells; listed as Aurora-A inhibition) | spindle (pole)-associated Aurora-A level (Aurora-A in U251 cells; listed as TPX2 depletion) | spindle (pole)-associated Aurora-A level (Aurora-A in U251 cells; listed as depletion of TPX2)
1 | 5′-CAAACAACUUGGAAAUCGAtt-3′ [siCEP192] | diminished the intensity of pT288 signal | significant drop |  |  | 
2 | COc1cc(Nc2ncc3c(n2)-c2ccc(Cl)cc2C(c2c(F)cccc2OC)=NC3)ccc1C(=O)O [Alisertib] | obliterated |  | significant drop |  | 
3 | 5′-CGGUAGUGAUAAAAGCUCAtt-3′ [siTPX2] | diminished the intensity of pT288 signal |  |  | complete loss of Aurora-A from mitotic spindles | diminished levels of spindle pole-associated Aurora-A
